This is an account of results in US20070117770A1, “Human ribosomal DNA (rDNA) and ribosomal RNA (rRNA) nucleic acids and uses thereof” (Cylene Pharmaceuticals, Inc., priority 2005, published 2007).

Holding throughout (assay): Protein kinase inhibition assay
Common to all, as to format: biochemical

In one test the target is ROCK-I(h) (Homo sapiens, UniProt Q13464). The conditions noted are these: read-out: percent residual activity of ROCK-I(h). The protocol:
(§1) Certain compounds were tested for activity in protein kinase inhibition assays. All substrates were dissolved and diluted to working stocks in de-ionized water, apart from histone H1 (10× working stock in 20 mM MOPS pH 7.0), PDKtide (10× working stock in 50 mM Tris pH 7.0) ATF2 (which is typically stored at a 20× working stock in 50 mM Tris pH 7.5, 150 mM NaCl, 0.1 mM EGTA, 0.03% Brij-35, 50% glycerol, 1 mM benzamidine, 0.2 mM PMSF and 0.1% R-mercaptoethanol), KKLNRTLSFAEPG (SEQ ID NO:203) and RRRLSFAEPG (SEQ ID NO:204) (50 mM HEPES pH 7.4) and GGEEEEYFELVKKKK (SEQ ID NO:205) (20 mM MOPS pH 7.0). All kinases were pre-diluted to a 10× working concentration prior to addition into the assay. The composition of the dilution buffer for each kinase is detailed below.
In a final reaction volume of 25 μl, ROCK-I (h) (5-10 mU) is incubated with 8 mM MOPS pH 7.0, 0.2 mM EDTA, 30 μM […] (SEQ ID NO:222), 10 mM MgAcetate and [gamma-33P-ATP] (specific activity approx. 500 cpm/pmol, concentration as required). The reaction is initiated by the addition of the MgATP mix. After incubation for 40 minutes at room temperature, the reaction is stopped by the addition of 5 μl of a 3% phosphoric acid solution. 10 μl of the reaction is then spotted onto a P30 filtermat and washed three times for 5 minutes in 75 mM phosphoric acid and once in methanol prior to drying and scintillation counting.

The target in a further test is CDK5/p25(h) (Homo sapiens, UniProt Q00535). The conditions noted are these: read-out: percent residual activity of CDK5/p25(h). The procedure: as §1
(§2) In a final reaction volume of 25 μl, CDK5/p25 (h) (5-10 mU) is incubated with 8 mM MOPS pH 7.0, 0.2 mM EDTA, 0.1 mg/ml histone H1, 10 mM MgAcetate and [y-33P-ATP] (specific activity approx. 500 cpm/pmol, concentration as required). The reaction is initiated by the addition of the MgATP mix. After incubation for 40 minutes at room temperature, the reaction is stopped by the addition of 5 μl of a 3% phosphoric acid solution. 10 μl of the reaction is then spotted onto a P30 filtermat and washed three times for 5 minutes in 75 mM phosphoric acid and once in methanol prior to drying and scintillation counting.

Another test deals with CK2(h) (Homo sapiens, UniProt P68400). The note with it: read-out: percent residual activity of CK2(h). The protocol:
as §1
In a final reaction volume of 25 μl, CK2 (h) (5-10 mU) is incubated with 20 mM HEPES pH 7.6, 0.15 M NaCl, 0.1 mM EDTA, 5 mM DTT, 0.1% Triton X-100, 165 μM RRRDDDSDDD (SEQ ID NO:215), 10 mM MgAcetate and [gamma-33P-ATP] (specific activity approx. 500 cpm/pmol, concentration as required). The reaction is initiated by the addition of the MgATP mix. After incubation for 40 minutes at room temperature, the reaction is stopped by the addition of 5 μl of a 3% phosphoric acid solution. […]

The next test addresses PKCζ(h) (Homo sapiens, UniProt Q05513). The note with it: read-out: percent residual activity of PKCζ(h). The procedure:
as §1
In a final reaction volume of 25 μl, PKCξ (h) (5-10 mU) is incubated with 8 mM MOPS pH 7.0, 0.2 mM EDTA, 50 μM ERMRPRKRQGSVRRRV (SEQ ID NO:224), 10 mM MgAcetate and [gamma-33P-ATP] (specific activity approx. 500 cpm/pmol, concentration as required). The reaction is initiated by the addition of the MgATP mix. After incubation for 40 minutes at room temperature, the reaction is stopped by the addition of 5 μl of a 3% phosphoric acid solution. 10 μl of the reaction is then spotted onto a P30 filtermat and washed three times for 5 minutes in 75 mM phosphoric acid and once in methanol prior to drying and scintillation counting.

The target of another test is EphB2(h) (Homo sapiens, UniProt P29323). The note with it: read-out: percent residual activity of EphB2(h). The procedure: as §1
as §2, with “EphB2” for “CDK5/p25”, “EDTA, 10 mM MnCl2,” for “EDTA,”, “poly(Glu, Tyr) 4:1,” for “histone H1,”, “[gamma-33P-ATP]” for “[y-33P-ATP]”, “Filtermat A” for “P30 filtermat”

The target of the next test is SAPK3(h) (Homo sapiens, UniProt P53778). The note with it: read-out: percent residual activity of SAPK3(h). The protocol:
as §1
In a final reaction volume of 25 μl, SAPK3 (h) (5-10 mU) is incubated with 25 mM Tris pH 7.5, 0.02 mM EGTA, 0.33 mg/ml myelin basic protein, 10 mM MgAcetate and [gamma-33P-ATP] (specific activity approx. 500 cpm/pmol, concentration as required). The reaction is initiated by the addition of the MgATP mix. After incubation for 40 minutes at room temperature, the reaction is stopped by the addition of 5 μl of a 3% phosphoric acid solution. 10 μl of the reaction is then spotted onto a P30 filtermat and washed three times for 5 minutes in 75 mM phosphoric acid and once in methanol prior to drying and scintillation counting.

CK2(h), sequence (P68400 whole entry): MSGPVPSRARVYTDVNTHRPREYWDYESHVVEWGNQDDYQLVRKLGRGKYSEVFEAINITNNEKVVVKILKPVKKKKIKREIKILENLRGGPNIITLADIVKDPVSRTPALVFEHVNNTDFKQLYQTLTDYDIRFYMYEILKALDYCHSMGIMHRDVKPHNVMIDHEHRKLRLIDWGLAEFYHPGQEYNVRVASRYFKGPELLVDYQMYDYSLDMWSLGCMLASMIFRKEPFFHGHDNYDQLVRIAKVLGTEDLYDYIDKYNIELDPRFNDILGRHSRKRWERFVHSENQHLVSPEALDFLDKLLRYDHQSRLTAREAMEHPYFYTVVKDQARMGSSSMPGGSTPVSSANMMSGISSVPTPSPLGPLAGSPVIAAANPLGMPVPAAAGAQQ
CK2(h), sequence (P67870 whole entry partner): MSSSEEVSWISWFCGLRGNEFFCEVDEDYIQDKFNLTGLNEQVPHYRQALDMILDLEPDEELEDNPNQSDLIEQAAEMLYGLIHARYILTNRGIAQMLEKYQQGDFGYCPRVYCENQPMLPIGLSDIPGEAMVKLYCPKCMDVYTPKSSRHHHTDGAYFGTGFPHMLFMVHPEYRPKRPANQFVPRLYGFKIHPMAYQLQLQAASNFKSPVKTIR
CDK5/p25(h), sequence (Q00535 whole entry): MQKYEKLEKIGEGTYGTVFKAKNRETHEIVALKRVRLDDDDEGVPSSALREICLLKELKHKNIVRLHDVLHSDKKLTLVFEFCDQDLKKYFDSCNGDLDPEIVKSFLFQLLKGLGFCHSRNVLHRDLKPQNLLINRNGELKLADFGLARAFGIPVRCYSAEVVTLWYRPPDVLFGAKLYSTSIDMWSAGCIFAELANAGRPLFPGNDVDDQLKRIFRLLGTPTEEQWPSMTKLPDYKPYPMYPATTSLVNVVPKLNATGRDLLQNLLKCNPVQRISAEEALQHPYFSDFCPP
CDK5/p25(h), sequence (Q15078 99-307 partner limits assumed): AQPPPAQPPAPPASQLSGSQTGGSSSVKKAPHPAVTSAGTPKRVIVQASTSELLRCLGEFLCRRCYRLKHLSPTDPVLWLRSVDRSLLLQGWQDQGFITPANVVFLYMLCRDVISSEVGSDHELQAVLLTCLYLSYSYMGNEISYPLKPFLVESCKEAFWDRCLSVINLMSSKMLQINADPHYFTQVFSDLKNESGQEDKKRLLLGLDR
SAPK3(h), sequence (P53778 whole entry): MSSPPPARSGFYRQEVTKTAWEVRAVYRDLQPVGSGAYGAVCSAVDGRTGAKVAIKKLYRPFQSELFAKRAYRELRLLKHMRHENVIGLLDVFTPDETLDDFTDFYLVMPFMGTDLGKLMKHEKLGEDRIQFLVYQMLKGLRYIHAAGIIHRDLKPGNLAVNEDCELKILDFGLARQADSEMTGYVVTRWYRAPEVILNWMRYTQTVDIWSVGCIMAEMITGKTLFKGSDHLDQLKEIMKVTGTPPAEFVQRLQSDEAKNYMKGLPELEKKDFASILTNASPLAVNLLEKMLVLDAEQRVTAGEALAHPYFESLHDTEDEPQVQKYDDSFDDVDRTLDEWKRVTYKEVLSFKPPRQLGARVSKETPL
EphB2(h), sequence (P29323 19-1055): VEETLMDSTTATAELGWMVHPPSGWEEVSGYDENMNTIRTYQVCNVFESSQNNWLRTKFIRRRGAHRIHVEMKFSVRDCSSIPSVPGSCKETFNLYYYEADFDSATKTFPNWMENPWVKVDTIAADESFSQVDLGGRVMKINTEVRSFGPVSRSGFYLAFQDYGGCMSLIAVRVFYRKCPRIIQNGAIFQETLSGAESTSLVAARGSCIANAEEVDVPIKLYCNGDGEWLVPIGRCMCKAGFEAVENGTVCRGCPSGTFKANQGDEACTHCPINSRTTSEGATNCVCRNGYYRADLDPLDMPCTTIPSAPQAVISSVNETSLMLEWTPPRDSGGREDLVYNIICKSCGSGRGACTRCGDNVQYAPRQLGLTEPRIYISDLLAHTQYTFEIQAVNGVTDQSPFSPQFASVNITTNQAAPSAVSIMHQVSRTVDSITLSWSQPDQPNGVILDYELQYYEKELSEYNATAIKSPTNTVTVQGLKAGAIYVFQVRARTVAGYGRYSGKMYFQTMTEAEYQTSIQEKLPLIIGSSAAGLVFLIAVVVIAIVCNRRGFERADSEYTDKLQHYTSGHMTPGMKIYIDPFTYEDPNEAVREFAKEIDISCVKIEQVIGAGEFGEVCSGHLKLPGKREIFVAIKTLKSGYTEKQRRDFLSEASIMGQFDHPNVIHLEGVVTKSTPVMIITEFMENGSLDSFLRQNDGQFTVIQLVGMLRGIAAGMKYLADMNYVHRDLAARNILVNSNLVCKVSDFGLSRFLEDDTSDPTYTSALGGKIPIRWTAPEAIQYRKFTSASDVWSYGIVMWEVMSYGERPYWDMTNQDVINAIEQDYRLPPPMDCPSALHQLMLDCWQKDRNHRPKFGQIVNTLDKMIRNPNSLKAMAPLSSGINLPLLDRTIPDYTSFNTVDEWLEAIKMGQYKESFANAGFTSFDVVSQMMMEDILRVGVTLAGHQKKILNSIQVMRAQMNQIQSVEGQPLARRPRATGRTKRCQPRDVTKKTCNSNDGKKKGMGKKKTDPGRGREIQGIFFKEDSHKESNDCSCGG
ROCK-I(h), sequence (Q13464 whole entry): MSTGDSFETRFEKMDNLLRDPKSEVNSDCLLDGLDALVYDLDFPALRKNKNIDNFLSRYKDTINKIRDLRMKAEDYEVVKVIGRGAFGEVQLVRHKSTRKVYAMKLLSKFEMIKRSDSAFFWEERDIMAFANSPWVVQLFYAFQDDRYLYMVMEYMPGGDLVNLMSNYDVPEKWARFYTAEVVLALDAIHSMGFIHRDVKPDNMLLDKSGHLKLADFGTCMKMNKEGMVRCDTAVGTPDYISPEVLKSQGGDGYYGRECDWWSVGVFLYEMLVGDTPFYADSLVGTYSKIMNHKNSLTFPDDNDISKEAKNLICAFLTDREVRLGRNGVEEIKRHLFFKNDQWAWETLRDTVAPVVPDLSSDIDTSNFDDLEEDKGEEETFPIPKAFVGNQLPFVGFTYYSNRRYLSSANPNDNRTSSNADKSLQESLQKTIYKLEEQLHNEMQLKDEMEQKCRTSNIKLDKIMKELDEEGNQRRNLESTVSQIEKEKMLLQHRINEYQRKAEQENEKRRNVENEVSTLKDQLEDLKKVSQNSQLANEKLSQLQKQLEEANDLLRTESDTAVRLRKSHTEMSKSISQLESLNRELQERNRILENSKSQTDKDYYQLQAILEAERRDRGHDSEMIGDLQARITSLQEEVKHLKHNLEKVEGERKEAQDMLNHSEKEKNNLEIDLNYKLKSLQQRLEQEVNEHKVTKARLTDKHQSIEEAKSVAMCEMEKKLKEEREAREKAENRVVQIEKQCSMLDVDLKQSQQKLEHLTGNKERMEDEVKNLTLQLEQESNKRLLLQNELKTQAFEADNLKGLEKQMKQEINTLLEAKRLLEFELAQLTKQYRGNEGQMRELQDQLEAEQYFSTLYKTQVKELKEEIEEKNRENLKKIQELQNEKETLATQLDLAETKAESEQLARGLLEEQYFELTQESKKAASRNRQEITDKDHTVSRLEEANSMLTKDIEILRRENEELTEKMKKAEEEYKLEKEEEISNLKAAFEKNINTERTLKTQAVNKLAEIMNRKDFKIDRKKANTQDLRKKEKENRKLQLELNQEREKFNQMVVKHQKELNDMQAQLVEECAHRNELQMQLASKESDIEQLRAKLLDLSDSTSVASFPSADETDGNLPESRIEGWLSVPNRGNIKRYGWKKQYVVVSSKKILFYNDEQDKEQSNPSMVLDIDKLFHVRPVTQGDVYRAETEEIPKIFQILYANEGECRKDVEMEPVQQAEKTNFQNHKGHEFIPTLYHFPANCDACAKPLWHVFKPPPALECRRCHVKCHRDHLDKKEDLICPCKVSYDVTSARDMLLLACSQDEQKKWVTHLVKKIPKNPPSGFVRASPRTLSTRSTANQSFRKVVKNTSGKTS
PKCζ(h), sequence (Q05513 whole entry): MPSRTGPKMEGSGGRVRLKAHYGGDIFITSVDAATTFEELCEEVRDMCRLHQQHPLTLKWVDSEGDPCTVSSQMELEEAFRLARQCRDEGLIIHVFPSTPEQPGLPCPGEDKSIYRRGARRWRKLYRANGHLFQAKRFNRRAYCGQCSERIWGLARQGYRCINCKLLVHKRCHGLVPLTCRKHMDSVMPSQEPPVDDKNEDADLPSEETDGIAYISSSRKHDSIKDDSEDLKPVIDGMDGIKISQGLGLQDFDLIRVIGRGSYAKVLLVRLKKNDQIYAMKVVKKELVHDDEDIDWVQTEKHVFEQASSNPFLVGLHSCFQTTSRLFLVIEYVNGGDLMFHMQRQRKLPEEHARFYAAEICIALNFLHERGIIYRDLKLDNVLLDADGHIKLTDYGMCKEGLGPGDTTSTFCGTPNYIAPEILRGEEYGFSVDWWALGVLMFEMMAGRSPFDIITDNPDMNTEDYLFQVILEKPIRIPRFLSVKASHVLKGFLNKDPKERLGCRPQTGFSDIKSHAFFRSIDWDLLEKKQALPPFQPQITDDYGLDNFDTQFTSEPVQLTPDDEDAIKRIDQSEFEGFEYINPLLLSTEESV

`CN1CCCC1CCNC(=O)c1cn2c3c(c(N4CCC(c5cnccn5)C4)c(F)cc3c1=O)Oc1cc3ccccc3cc1-2` (stereo not drawn) [Compound A-1]: the remaining activity at 2.5 µM is 91% on ROCK-I(h); 77% on CDK5/p25(h); 104% at CK2(h); 56% on PKCζ(h); 96% on EphB2(h); 85% on SAPK3(h).
As for `CC(=O)N1CCN(c2ccc3c(=O)c(C(=O)NCCN4CCCC4)c4n(C)c5ccccc5n4c3n2)CC1` [Compound B-1], the remaining activity at 2.5 µM on ROCK-I(h) was found to be 101%; at CDK5/p25(h), 99%; at CK2(h), 102%; on PKCζ(h) it was 113%; at EphB2(h), 106%; at SAPK3(h), 111%.
